According to patent US7173004B2, “Macrocyclic isoquinoline peptide inhibitors of hepatitis C virus” (Bristol-Myers Squibb Company, priority 2003, dated 2007):
Structures can show the parent of a compound that is named as a salt.

Each compound was assayed against T1, HCV NS3/4A protease complex, BMS strain (genotype 1a) (UniProt P27958, C1454S/C1711G, species not given/STRAIN_BMS) (assay: Recombinant HCV NS3/4A protease complex FRET peptide assay, BMS strain). Conditions: NS3/4A BMS Strain; activity range classes.
T1 construct: b1001: DNA encoding the recombinant HCV NS3/4A protease complex (amino acids 1027 to 1711) ... a three-lysine solubilizing tail was added at the 3′-end of the NS4A coding region; fused on or other part: Three-lysine solubilising tail at the C-terminus of NS4A; A His tag is implied by the pET21b vector and Ni-NTA purification
Assay type: biochemical
Text: Recombinant HCV NS3/4A Protease Complex FRET Peptide Assay
The purpose of this in vitro assay was to measure the inhibition of HCV NS3 protease complexes, derived from the BMS strain, H77C strain or J416S strain, as described below, by compounds of the present invention. This assay provides an indication of how effective compounds of the present invention would be in inhibiting HCV proteolytic activity.
Serum from an HCV-infected patient was obtained from Dr. T. Wright, San Francisco Hospital. An engineered full-length cDNA (compliment deoxyribonucleic acid) template of the HCV genome (BMS strain) was constructed from DNA fragments obtained by reverse transcription-PCR (RT-PCR) of serum RNA (ribonucleic acid) and using primers selected on the basis of homology between other genotype 1a strains. From the determination of the entire genome sequence, a genotype 1a was assigned to the HCV isolate according to the classification of Simmonds et al. (See P Simmonds, K A Rose, S Graham, S W Chan, F McOmish, B C Dow, E A Follett, P L Yap and H Marsden, J. Clin. Microbiol., 31(6), 1493–1503 (1993)). […] The infectious clones, H77C (1a genotype) and J4L6S (1b genotype) were obtained from R. Purcell (NIH) and the sequences are published in Genbank (AAB67036, see Yanagi, M., Purcell, R. H., Emerson, S. U. and Bukh, J. Proc. Natl. Acad. Sci. U.S.A. 94(16), 8738–8743 (1997); AF054247, see Yanagi, M., St Claire, M., Shapiro, M., Emerson, S. U., Purcell, R. H. and Bukh, J, Virology 244 (1), 161–172. (1998)).
The H77C and J4L6S strains were used for production of recombinant NS3/4A protease complexes. DNA encoding the recombinant HCV NS3/4A protease complex (amino acids 1027 to 1711) for these strains were manipulated as described by P. Gallinari et al. (see Gallinari P, Paolini C, Brennan D, Nardi C, Steinkuhler C, De Francesco R. Biochemistry. 38(17):5620–32, (1999)). Briefly, a three-lysine solubilizing tail was added at the 3′-end of the NS4A coding region. The cysteine in the P1 position of the NS4A-NS4B cleavage site (amino acid 1711) was changed to a glycine to avoid the proteolytic cleavage of the lysine tag. Furthermore, a cysteine to serine mutation was introduced by PCR at amino acid position 1454 to prevent the autolytic cleavage in the NS3 helicase domain. The variant DNA fragment was cloned in the pET21b bacterial expression vector (Novagen) and the NS3/4A complex was expressed in Escherichia coli strain BL21 (DE3) (Invitrogen) following the protocol described by P. Gallinari et al. (see Gallinari P, Brennan D, Nardi C, Brunetti M, Tomei L, Steinkuhler C, De Francesco R., J. Virol. 72(8):6758–69 (1998)) with modifications. Briefly, NS3/4A expression was induced with 0.5 mM Isopropyl β-D-1-thiogalactopyranoside (IPTG) for 22 hr at 20° C. A typical fermentation (10 L) yielded approximately 80 g of wet cell paste. The cells were resuspended in lysis buffer (10 mL/g) consisting of 25 mM N-(2-Hydroxyethyl)piperazine-N′-(2-Ethane Sulfonic acid) (HEPES), pH7.5, 20% glycerol, 500 mM Sodium Chloride (NaCl), 0.5% Triton-X100, 1 microgram/milliliter (“μg/mL”) lysozyme, 5 mM Magnesium Chloride (MgCl2), 1 ug/ml DnaseI, 5 mM β-Mercaptoethanol (βME), Protease inhibitor—Ethylenediamine Tetraacetic acid (EDTA) free (Roche), homogenized and incubated for 20 mins at 4° C. The homogenate was sonicated and clarified by ultra-centrifugation at 235000 g for 1 hr at 4° C. Imidazole was added to the supernatant to a final concentration of 15 mM and the pH adjusted to 8.0. The crude protein extract was loaded on a Nickel-Nitrilotriacetic acid (Ni-NTA) column pre-equilibrated with buffer B (25 mM HEPES, pH8.0, 20% glycerol, 500 mM NaCl, 0.5% Triton-X100, 15 mM imidazole, 5 mM βME). The sample was loaded at a flow rate of 1 mL/min. The column was washed with 15 column volumes of buffer C (same as buffer B except with 0.2% Triton-X100). The protein was eluted with 5 column volumes of buffer D (same as buffer C except with 200 mM Imidazole). […]

SMILES | IC50 [nM]
COc1ccc2c(OC3CC4C(=O)NC5(C(=O)O)CC5C=CCCCCCC(NC(=O)OC(C)(C)C)C(=O)N4C3)nccc2c1 (stereo not drawn) [Compound 17A] | < 50
COc1ccc2c(OC3CC4C(=O)NC5(C(=O)O)CC5C=CCCCSCC(NC(=O)OC(C)(C)C)C(=O)N4C3)nccc2c1 (stereo not drawn) [Compound 18A, 14-tert-Butoxycarbonylamino-18-(6-methoxy-isoquinolin-1-yloxy)-2,15-dioxo-12-thia-3,16-diaza-tricyclo[14.3.0.0^4,6]nonadec-7-ene-4-carboxylic acid] | 50 to 500

Same assay, conditions: NS3/4A BMS strain; activity range symbols

SMILES | IC50 [nM]
CC(C)(C)OC(=O)NC1CCCCCC=CC2CC2(C(=O)NS(=O)(=O)C2CC2)NC(=O)C2CC(Oc3nc(Cl)cc4ccccc34)CN2C1=O (stereo not drawn) [Compound 57] | < 50
COCC(=O)NC1CCCCCC=CC2CC2(C(=O)NS(=O)(=O)C2CC2)NC(=O)C2CC(Oc3nccc4ccccc34)CN2C1=O (stereo not drawn) [Compound 24] | < 50
CCCC1(S(=O)(=O)NC(=O)[C@@]23C[C@H]2CCCCCCC[C@H](NC(=O)OC(C)(C)C)C(=O)N2C[C@H](Oc4nccc5ccccc45)C[C@H]2C(=O)N3)CC1 [Compound 7, [18-(Isoquinolin-1-yloxy)-2,15-dioxo-4-(1-propyl-cyclopropanesulfonylaminocarbonyl)-3,16-diaza-tricyclo[14.3.0.0^4,6]nonadec-14-yl]-carbamic acid tert-butyl ester] | < 50
CCC1(S(=O)(=O)NC(=O)C23CC2C=CCOCCCC(NC(=O)OC(C)(C)C)C(=O)N2CC(Oc4nccc5cc(OC)ccc45)CC2C(=O)N3)CC1 (stereo not drawn) [Compound 30] | < 50
CC1(OC(=O)NC2CCCCCC=CC3CC3(C(=O)NS(=O)(=O)C3CC3)NC(=O)C3CC(Oc4nccc5ccccc45)CN3C2=O)CC1 (stereo not drawn) [Compound 59] | < 50
COc1ccc2c(OC3CC4C(=O)NC5(C(=O)NS(=O)(=O)C6(C)CC6)CC5C=CCCCSCC(NC(=O)NC5CCCC5)C(=O)N4C3)nccc2c1 (stereo not drawn) [Compound 43] | < 50
O=C(NC1CCCCCC=CC2CC2(C(=O)NS(=O)(=O)C2CC2)NC(=O)C2CC(Oc3nccc4ccccc34)CN2C1=O)OC1CCCC1 (stereo not drawn) [Compound 20] | < 50
CC(C)(CCl)OC(=O)NC1CCCCCC=CC2CC2(C(=O)NS(=O)(=O)C2CC2)NC(=O)C2CC(Oc3nccc4ccccc34)CN2C1=O (stereo not drawn) [Compound 52] | < 50
COc1ccc2c(O[C@@H]3C[C@H]4C(=O)N[C@]5(C(=O)NS(=O)(=O)C6CC6)C[C@H]5/C=C\CCCCC[C@H](NC(=O)OC(C)(C)C)C(=O)N4C3)nccc2c1 [Compound 17B, [4-Cyclopropanesulfonylaminocarbonyl-18-(6-methoxy-isoquinolin-1-yloxy)-2,15-dioxo-3,16-diaza-tricyclo[14.3.0.0^4,6]nonadec-7-en-14-yl]-carbamic acid tert-butyl ester] | < 50
CCC1(S(=O)(=O)NC(=O)C23CC2C=CCCCOC(C)C(NC(=O)NC2CCCC2)C(=O)N2CC(Oc4nccc5cc(OC)ccc45)CC2C(=O)N3)CC1 (stereo not drawn) [Compound 73] | < 50
COc1ccc2c(OC3CC4C(=O)NC5(C(=O)NS(=O)(=O)C6(C)CC6)CC5C=CCCCOC(C)C(NC(=O)OC(C)C)C(=O)N4C3)nccc2c1 (stereo not drawn) [Compound 68] | < 50
CC(C)(C)COC(=O)N[C@H]1CCCCC/C=C\[C@@H]2C[C@@]2(C(=O)NS(=O)(=O)C2CC2)NC(=O)[C@@H]2C[C@@H](Oc3nccc4ccccc34)CN2C1=O [Compound 13, [4-Cyclopropanesulfonylaminocarbonyl-18-(isoquinolin-1-yloxy)-2,15-dioxo-3,16-diaza-tricyclo[14.3.0.0^4,6]nonadec-7-en-14-yl]-carbamic acid 2,2-dimethyl-propyl ester] | < 50
CC(C)(C)OC(=O)N[C@H]1CCCCC/C=C\[C@@H]2C[C@@]2(C(=O)NS(C)(=O)=O)NC(=O)[C@@H]2C[C@@H](Oc3nccc4ccccc34)CN2C1=O [Compound 2, [18-(Isoquinolin-1-yloxy)-4-methanesulfonylaminocarbonyl-2,15-dioxo-3,16-diaza-tricyclo[14.3.0.0^4,6]nonadec-7-en-14-yl]-carbamic acid tert-butyl ester] | < 50
CC(C)OC(=O)N[C@H]1CCCCC/C=C\[C@@H]2C[C@@]2(C(=O)NS(=O)(=O)C2CC2)NC(=O)[C@@H]2C[C@@H](Oc3nccc4ccccc34)CN2C1=O [Compound 16, [4-Cyclopropanesulfonylaminocarbonyl-18-(isoquinolin-1-yloxy)-2,15-dioxo-3,16-diaza-tricyclo[14.3.0.0^4,6]nonadec-7-en-14-yl]-carbamic acid isopropyl ester] | < 50
COc1ccc2c(OC3CC4C(=O)NC5(C(=O)NS(=O)(=O)C6CC6)CC5C=CCOCCCC(NC(=O)NC5CCCC5)C(=O)N4C3)nccc2c1 (stereo not drawn) [Compound 33] | < 50
COc1ccc2c(OC3CC4C(=O)NC5(C(=O)NS(=O)(=O)C6(C)CC6)CC5C=CCCCCCC(NC(=O)OC(C)(C)C)C(=O)N4C3)nccc2c1 (stereo not drawn) [Compound 53] | < 50
CCC1(S(=O)(=O)NC(=O)C23CC2C=CCCCOC(C)C(NC(=O)OCC(C)(C)C)C(=O)N2CC(Oc4nccc5cc(OC)ccc45)CC2C(=O)N3)CC1 (stereo not drawn) [Compound 71] | < 50
COc1ccc2c(OC3CC4C(=O)NC5(C(=O)NS(=O)(=O)C6(C)CC6)CC5C=CCCCOC(C)C(NC(=O)OC(C)(C)C)C(=O)N4C3)nccc2c1 (stereo not drawn) [Compound 66] | < 50
CCC1(S(=O)(=O)NC(=O)C23CC2C=CCCC[S+]([O-])CC(NC(=O)OC(C)(C)C)C(=O)N2CC(Oc4nccc5cc(OC)ccc45)CC2C(=O)N3)CC1 (stereo not drawn) [Compound 47] | < 50
N[C@H]1CCCCC/C=C\[C@@H]2C[C@@]2(C(=O)NS(=O)(=O)C2CC2)NC(=O)[C@@H]2C[C@@H](Oc3nccc4ccccc34)CN2C1=O [Compound 11, Cyclopropanesulfonic acid [14-amino-18-(isoquinolin-1-yloxy)-2,15-dioxo-3,16-diaza-tricyclo[14.3.0.0^4,6]nonadec-7-ene-4-carbonyl]-amide bis hydrochloride] | < 50
COc1ccc2c(OC3CC4C(=O)NC5(C(=O)NS(=O)(=O)C6CC6)CC5C=CCCCOC(C)C(NC(=O)OC(C)(C)C)C(=O)N4C3)nccc2c1 (stereo not drawn) [Compound 62] | < 50
COc1ccc2c(OC3CC4C(=O)NC5(C(=O)NS(=O)(=O)C6CC6)CC5C=CCOCCCC(NC(=O)OC(C)C)C(=O)N4C3)nccc2c1 (stereo not drawn) [Compound 31] | < 50
COc1ccc2c(OC3CC4C(=O)NC5(C(=O)NS(=O)(=O)C6(C)CC6)CC5C=CCCCS(=O)(=O)CC(NC(=O)OC(C)(C)C)C(=O)N4C3)nccc2c1 (stereo not drawn) [Compound 49] | 50 to 500
CC(C)(OC(=O)NC1CCCCCC=CC2CC2(C(=O)NS(=O)(=O)C2CC2)NC(=O)C2CC(Oc3nccc4ccccc34)CN2C1=O)C(F)(F)F (stereo not drawn) [Compound 51] | < 50

Same assay, conditions: read-out: IC50 against the BMS strain NS3/4A protease in the enzyme assay; BMS strain

SMILES | IC50 [nM]
CC(C)(C)OC(=O)N[C@H]1CCCCC/C=C\[C@@H]2C[C@@]2(C(=O)NS(C)(=O)=O)NC(=O)[C@@H]2C[C@@H](Oc3nccc4ccccc34)CN2C1=O [Compound 2, [18-(Isoquinolin-1-yloxy)-4-methanesulfonylaminocarbonyl-2,15-dioxo-3,16-diaza-tricyclo[14.3.0.0^4,6]nonadec-7-en-14-yl]-carbamic acid tert-butyl ester] | 26
